# Results published in patent US10792360B1, “Compositions and methods for treating inflammatory bowel disease using CCR9 inhibitor and anti-TNF-alpha blocking antibodies” (ChemoCentryx, Inc., priority 2019, dated 2020).
# Assay: Compound 1 plasma concentration at trough (LC-MS) in piroxicam-accelerated MDR1a−/− colitis mice
# Format: in vivo, mouse
# Settings: 90 mg/kg SC BID in 10% Cremophor-EL; trough blood after 3rd and 21st day of dosing; FIG. 1
# Protocol: Compound 1 was dosed at 90 mg/kg in 10% Cremophor-EL, SC, BID. Vehicle was 10% Cremophor-EL and was administered SC, BID. Anti-mouse TNFα clone XT3.11 (Rat IgG1), 300 μg/mouse, QD/QOD; Isotype-matched control Clone HRPN (Rat IgG1), 300 μg/mouse, QD/QOD.
# Blood was taken at trough from all Compound 1-dosed mice, and plasma analyzed by Liquid Chromatography-Mass Spectroscopy to determine Compound 1 concentration. Trough blood was taken after the 3rd day (left panel) and 21st day (right panel) of dosing (FIG. 1).
structure (smiles),measurement,value
CC(C)(C)c1ccc(S(=O)(=O)Nc2ccc(Cl)cc2C(=O)c2cc[n+]([O-])cc2)cc1 [Compound 1],Compound 1 plasma concentration at trough,met or exceeded the minimal concentration established for 98% receptor coverage
